Laboratory results: patent US10085940B2, “Liposomes co-encapsulating a bisphosphonate and an amphipathic agent” (YISSUM RESEARCH DEVELOPMENT COMPANY OF THE HEBREW …, priority 2011, dated 2018)

What was measured:
[1] = tested on: IGROV-1 ovarian carcinoma; experiment: In vitro cytotoxicity, 72 hr continuous exposure, methylene blue staining; format: cell-based, human
Description: (§1) Cytotoxicity was assayed using varying concentrations of ALD (0.1-200 μM) under standard 72 hr, continuous exposure, in 96-multiwell assays. Growth rate was assessed colorimetrically based on methylene blue staining and data was obtained with an automatic plate reader and IC50 values were determined
Cytotoxicity was assayed as described above in Example 1.

KB-hiFR = experiment: as above; format: cell-based, human; conditions: for IC50: KB-hiFR, 72 hr continuous exposure
Description: as §1

[2] = tested on: N87 human gastric carcinoma cells; experiment: as above; format: cell-based; conditions: N-87
Description: as §1

[3] = tested on: M109R (doxorubicin resistant) carcinoma; format: in vivo, mouse; conditions: M109R footpad tumor, i.v. 5 mg/kg doxorubicin or equivalent ALD, D7, D14, D21
Description: The tumor model used here is the mouse M109R (doxorubicin resistant) carcinoma.
M109R tumor cells (10^6 cells/0.05 ml) were inoculated into the subcutaneous space of the mouse right hind footpad. Five to 7 days after inoculation, mice injected with M109R cells developed solid tumors as measured by the increased thickening of the footpad. Different liposomes were injected i.v. at dose levels of 5 mg/kg based on Doxorubicin content or an amount of Alendronate equivalent to that present in the co-encapsulated formulation at doxorubicin dose of 5 mg/kg. […] Treatment was administered on Day 7 (D7), Day 14 (D14) and Day 21 (D21). Kaplan-Meyer curves were based on an experimental endpoint of tumor size equal or greater than 4 mm.

KG-1 cells = experiment: PKH26/AnnexinV flow cytometry of KG-1 cells co-cultured with γδ T-cells; format: cell-based, human; conditions: 20 μg/mL (Doxil 13.3 μg/mL) 24 h, then 4 h with γδ T-cells 1:1 or 1:5, 100 U/mL IL-2
Description: The following method is based on the procedure described by Fischer and Mackensen (2003) The flow cytometric PKH-26 assay for the determination of T-cell mediated cytotoxic activity. Methods 31: 135-142.
Specifically, 1×10^5 KG-1 cells, previously stained with PKH26 Red Fluorescent, were plated in a 24 well plate in 1 mL of complete media. These cells were then treated with different preparations: • (i) 20 μg/mL Alendronate (free Alendronate) • (ii) 20 μg/mL of liposomal Alendronate+Doxorubicin (L-ALD/DOX), • (iii) 20 μg/mL of folate targeted liposomal Alendronate+Doxorubicin (FR-L-ALD/DOX); • (iv) 13.3 μg/mL Doxil (the amount of doxorubicin correspondent to doxorubicin in L-ALD/DOX) • (v) Empty liposomes (stealth) • (vi) Control—no treatment.
Cells were incubated for 24 h at 37° C. with a treatment formulation according to the above groups. After 24 h, each group of treated KG-1 cells was co-cultured with γδ T_cells at a ratio of 1 tumor cell to 1 γδ T-cell and at 1 tumor cell to 5 γδ T-cells. In addition, 100 U/mL of IL-2 was also given to each treatment group. […]
After 4 h incubation, the cell cultures were stained with AnnexinV FITC (BD) in order to measure the percentage of apoptotic cells. The samples were analysed by flow cytometry and the principle is that tumor cell death is measured by analysing PKH26^+AnnexinV^+ cells.

## COc1cccc2c1C(=O)c1c(O)c3c(c(O)c1C2=O)C[C@@](O)(C(=O)CO)C[C@@H]3O[C@H]1C[C@H](N)[C@H](O)[C@H](C)O1 [Free DOX, doxorubicin]
[1]
  IC50: 250 nM
KB-hiFR
  IC50: 40 nM
[2]
  IC50: 3120 nM

## NCCCC(O)(P(=O)(O)O)P(=O)(O)O [Free ALD, 4-amino-1-hydroxybutylidene-1,1-bisphosphonic acid]
[3]
  anti-tumor activity: no anti-tumor effect
KG-1 cells
  tumor cell killing / sensitivity to γδ T-cells (PKH26+AnnexinV+ cells): enhances tumour sensitivity to γδ T-cells' cytotoxic action
KB-hiFR; Homo sapiens
  IC50: > 20000 nM
KB-hiFR; stated for KB, N87 and IGROV cell lines together (FIGS. 3B-3D)
  cytotoxicity (in words): essentially no cytotoxicity
